Measurements as given in patent EP0382875A1, “Dispersant for biologically active peptide” (Matuo, Yuhsy, priority 1989, dated 1990).

Experiments:
[1] = Heparin-5PW HPLC of extract from BPH tissues with or without CHAPS (elution of FGF activity); assay type: physicochemical, human; settings: Heparin-5PW HPLC of BPH tissue extract, 0.1% CHAPS versus no CHAPS
Description: An extract from human benign prostatic hypertrophy (BPH) tissues was subjected to Heparin-5PW HPLC without adding any CHAPS thereto.
An extract from BPH tissues was subjected to Heparin-5PW HPLC in the presence of 0.1% CHAPS thereto.

BALB/C3T3 cells [2] = assay: Adsorption of FGF to containers of different kinds, with or without CHAPS (FGF activity after storage); assay type: physicochemical, mouse; settings: addition of 0.1% CHAPS; FGF 0.5 µg/ml PBS; 4°C for 2 days
Protocol: (§1) Next, examples of the present invention are shown. DNA synthesis activity or FGF activity of samples was determined by the method shown in Example 1 and expressed by cpm (counts per minute) x 10⁻⁴/well/3h.
(§2) BALB/C3T3 cells, a kind of fibroblasts established from a mouse fetus were suspended in 3% bovine serum-containing DME medium (DME-3% CS) at a concentration of 2 x 10⁴/ml. One milliliter of the suspension was taken and cultured at 37°C for 5 hours on a 24 well tissue culture dish. Then, the medium was replaced by 1 ml of DME-1% CS followed by culturing at 37°C for 48 hours. A sample (2 to 20 µl) was added thereto, followed by culturing for further 16 hours.
Then, 10 µl of 2 x 10⁻⁵ M[³H]thymidine (40 µCi/ml) was supplemented. After culturing for 3 hours, radioactivity incorporated into DNA fraction was measured. That is, after the medium was removed, cells were rinsed with 1 ml of PBS (phosphate-buffered saline) once and 3 times with 1 ml of cold 10% TCA (trichloroacetic acid). Then, 1 ml of 0.5 M NaOH was added thereto. […] Scintillator cocktail, 6 ml, was added thereto to measure the radioactivity.
Commercially available FGF (fibroblast growth factor) was charged in containers shown in Table 1, respectively, in 0.5 µg/ml PBS; the containers were charged with or without 0.1% CHAPS. After storing at 4°C for 2 days, FGF activity in each container was measured.

BALB/C3T3 cells [3] = assay: Thermal stability of FGF at 50°C with or without CHAPS (FGF activity); assay type: physicochemical, mouse; settings: FGF 5 µg/ml, 1% CHAPS, 50°C for 1 hour
Protocol: as §1, §2
(§3) Then, 10 µl of 2 x 10⁻⁵ M[³H]thymidine (40 µCi/ml) was supplemented. After culturing for 3 hours, radioactivity incorporated into DNA fraction was measured. That is, after the medium was removed, cells were rinsed with 1 ml of PBS (phosphate-buffered saline) once and 3 times with 1 ml of cold 10% TCA (trichloroacetic acid). Then, 1 ml of 0.5 M NaOH was added thereto. After allowing to stand at room temperature for 15 minutes, the mixture was neutralized with 5 M HCl. Scintillator cocktail, 6 ml, was added thereto to measure the radioactivity.
After commercially available FGF (5 µg/ml) added with 1% CHAPS or added with no CHAPS was allowed to stand at 50°C for 1 hour, stability of FGF was examined. […]

BALB/C3T3 fibroblasts = assay: Cytotoxicity of dispersants: DNA synthesis activity ([3H]thymidine incorporation) in cultured fibroblasts; assay type: cell-based, mouse; settings: added to medium at 1 x 10⁻⁴ to 1 x 10⁻¹%, culture 19 hours; compared with NOG, SB12, Triton X-100, NP-40
Protocol: Upon culturing BALB/C3T3 fibroblasts in bovine serum-supplemented medium on a 24 well plate, CHAPS, NOG (1-O-n-octyl-β-D-glucopyranoside), SB12 (3-(dodecylmethylammonio)-1-propane sulfonate: sulfobetaine 12), Triton X-100 and NP-40 (Nonidet P-40) were added to the medium at concentrations of 1 x l0⁻⁴ to 1 x 10⁻¹%.
as §2, §3

[4] = Solubility in water and organic solvents; assay type: physicochemical
Description: That is, CHAPS or CHAPSO can be removed by utilizing difference in solubility in organic solvents. CHAPS or CHAPSO is soluble in water, methanol and dimethylsulfoxide but insoluble in other solvents (acetone, acetonitrile, ether, chloroform, 2-methyl-1-propanol, N,N-dimethylformamide, isoamly alcohol, ethanol, hexane, xylene, petroleum ether, benzene, n-heptane, toluene). Utilizing the difference in solubility, CHAPS or CHAPSO can easily be removed.

[5] = in other solvents (acetone, acetonitrile, ether, chloroform, 2-methyl-1-propanol, N,N-dimethylformamide, isoamyl alcohol, ethanol, hexane, xylene, petroleum ether, benzene, n-heptane, toluene)
[6] = in water, methanol and dimethylsulfoxide

Compound	adsorption of FGF onto carrier and device during chromatographies [1]	adsorption of FGF onto the containers (BALB/C3T3 cells [2])	effect on thermal instability of FGF (BALB/C3T3 cells [3])	cytotoxicity (DNA synthesis activity) (BALB/C3T3 fibroblasts)	solubility [4, 5]	solubility [4, 6]
C[C@H](CCC(=O)NCCC[N+](C)(C)CCCS(=O)(=O)[O-])[C@H]1CC[C@H]2[C@@H]3[C@H](O)C[C@@H]4C[C@H](O)CC[C@]4(C)[C@H]3C[C@H](O)[C@]12C [CHAPS, 3-[(3-cholamidopropyl)dimethylammonio]-1-propane sulfonate]	prevents adsorption of FGF onto a carrier and device	effectively prevented	stabilizing effect	least cytotoxicity among various surface active agents	insoluble	soluble
C[C@H](CCC(=O)NCCC[N+](C)(C)CC(O)CS(=O)(=O)[O-])[C@H]1CC[C@H]2[C@@H]3[C@H](O)C[C@@H]4C[C@H](O)CC[C@]4(C)[C@H]3C[C@H](O)[C@]12C (some centres unmarked) [CHAPSO, 3-(3-cholamidopropyl)dimethylammonio]-2-hydroxy-1-propane sulfonate]	–	–	–	–	insoluble	soluble
